For orientation: EC50 means the concentration giving half of the maximal effect. Low values mean an effect from little substance, high ones a need for much substance. The Emax is the maximal effect, on the per cent scale that the assay sets.

The values below come from publication PMC5518309 (ChemMedChem, 2014).

Common to all, as to type: cell-based
For one test, the target named is T1, hY2R (Homo sapiens, UniProt P49146).
T1 sequence (P49146 1-381): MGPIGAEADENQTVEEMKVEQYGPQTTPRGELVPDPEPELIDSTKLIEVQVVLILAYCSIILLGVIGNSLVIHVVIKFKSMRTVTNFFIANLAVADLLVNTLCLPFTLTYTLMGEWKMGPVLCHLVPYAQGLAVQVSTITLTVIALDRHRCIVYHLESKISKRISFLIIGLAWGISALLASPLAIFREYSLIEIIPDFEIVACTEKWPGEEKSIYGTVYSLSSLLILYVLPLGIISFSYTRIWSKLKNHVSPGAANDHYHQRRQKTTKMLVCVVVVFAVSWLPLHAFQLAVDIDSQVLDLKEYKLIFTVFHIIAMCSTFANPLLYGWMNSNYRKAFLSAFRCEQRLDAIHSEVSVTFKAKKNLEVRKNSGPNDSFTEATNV
As to the kind of experiment: Inositol phosphate accumulation assay, hY2R. The settings on record: for Emax: read-out: hY2R Emax.

The target in the next test is hY4R (Homo sapiens, UniProt P50391). As to the kind of experiment: Inositol phosphate accumulation assay, hY4R. The settings on record: for Emax: read-out: hY4R Emax.
The target of another test is T2, hY5R (Homo sapiens, UniProt Q15761).
T2 sequence (Q15761 1-445): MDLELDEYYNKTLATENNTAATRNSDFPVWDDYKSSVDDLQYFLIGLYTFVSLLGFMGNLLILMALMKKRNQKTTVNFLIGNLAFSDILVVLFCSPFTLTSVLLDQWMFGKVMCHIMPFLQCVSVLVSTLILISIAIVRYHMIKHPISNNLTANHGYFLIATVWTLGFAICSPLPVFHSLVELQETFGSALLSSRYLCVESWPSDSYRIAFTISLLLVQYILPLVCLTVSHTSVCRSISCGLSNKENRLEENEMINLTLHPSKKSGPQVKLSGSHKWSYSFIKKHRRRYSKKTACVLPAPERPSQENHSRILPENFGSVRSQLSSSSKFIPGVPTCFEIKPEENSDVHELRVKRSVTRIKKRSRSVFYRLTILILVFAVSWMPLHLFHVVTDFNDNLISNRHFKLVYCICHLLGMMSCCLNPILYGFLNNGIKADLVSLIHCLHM
As to the kind of experiment: Inositol phosphate accumulation assay, hY5R. The settings on record: for Emax: read-out: hY5R Emax.

Another test has as its target T3, hY1R (Homo sapiens, UniProt P25929).
T3 sequence (P25929 1-384): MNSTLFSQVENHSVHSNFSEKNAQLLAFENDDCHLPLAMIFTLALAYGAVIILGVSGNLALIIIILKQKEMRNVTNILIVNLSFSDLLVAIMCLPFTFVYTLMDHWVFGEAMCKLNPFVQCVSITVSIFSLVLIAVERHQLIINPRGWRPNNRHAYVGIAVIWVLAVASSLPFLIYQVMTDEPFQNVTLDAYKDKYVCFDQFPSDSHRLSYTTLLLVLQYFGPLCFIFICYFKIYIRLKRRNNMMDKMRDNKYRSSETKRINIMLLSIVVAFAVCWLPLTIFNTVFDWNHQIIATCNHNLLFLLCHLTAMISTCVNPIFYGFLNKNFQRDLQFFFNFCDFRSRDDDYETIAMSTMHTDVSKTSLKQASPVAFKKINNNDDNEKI
As to the kind of experiment: Inositol phosphate accumulation assay, hY1R. The settings on record: for Emax: read-out: hY1R Emax.

Numbered stars: 1 amine (or outer) side, 2 acyl side, 3 side chain; on linkers, the order of the positions; unused ones are H or OH. Side chains are listed from the residue outwards. Peptide text beside a SMILES is read from it. * marks the point of attachment. Arachidoyl = CCCCCCCCCCCCCCCCCCCC(=O)*; γGlu = O=C(O)[C@H](CCC(=O)[*:2])N[*:1]; Lauroyl = CCCCCCCCCCCC(=O)*; Octanoyl = CCCCCCCC(=O)*

Sequence of hY4R (P50391 whole entry): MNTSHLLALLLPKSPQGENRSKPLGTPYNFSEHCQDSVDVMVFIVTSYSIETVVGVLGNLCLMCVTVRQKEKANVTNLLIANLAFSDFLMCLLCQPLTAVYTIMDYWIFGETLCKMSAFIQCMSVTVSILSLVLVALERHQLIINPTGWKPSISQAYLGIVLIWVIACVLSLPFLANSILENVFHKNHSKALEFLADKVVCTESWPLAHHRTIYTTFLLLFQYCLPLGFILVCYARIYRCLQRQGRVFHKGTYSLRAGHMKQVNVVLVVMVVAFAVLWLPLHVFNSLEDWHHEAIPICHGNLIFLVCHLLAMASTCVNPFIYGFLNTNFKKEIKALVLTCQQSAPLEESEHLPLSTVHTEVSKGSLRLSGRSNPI

Consider `CCCCCCCCCCCC(=O)N[C@@H](CCC(=O)NCCCC[C@H](NC(=O)[C@H](C)NC(=O)[C@H](Cc1ccc(O)cc1)NC(=O)[C@H](CCC(N)=O)NC(=O)[C@H](C)NC(=O)[C@H](CCSC)NC(=O)[C@H](CCC(N)=O)NC(=O)[C@H](CCC(=O)O)NC(=O)[C@@H]1CCCN1C(=O)[C@@H](NC(=O)[C@H](C)NC(=O)[C@H](CC(N)=O)NC(=O)[C@H](CC(=O)O)NC(=O)CNC(=O)[C@@H]1CCCN1C(=O)[C@H](Cc1ccc(O)cc1)NC(=O)[C@@H](NC(=O)[C@@H]1CCCN1C(=O)[C@H](CCC(=O)O)NC(=O)[C@H](CC(C)C)NC(=O)[C@@H]1CCCN1)C(C)C)[C@@H](C)O)C(=O)N[C@@H](CC(=O)O)C(=O)N[C@@H](CC(C)C)C(=O)N[C@@H](CCCNC(=N)N)C(=O)N[C@@H](CCCNC(=N)N)C(=O)N[C@@H](Cc1ccc(O)cc1)C(=O)N[C@H](C(=O)N[C@@H](CC(N)=O)C(=O)N[C@@H](CCSC)C(=O)N[C@@H](CC(C)C)C(=O)N[C@H](C(=O)N[C@@H](CCCNC(=N)N)C(=O)N1CCC[C@H]1C(=O)N[C@@H](CCCNC(=N)N)C(=O)N[C@@H](Cc1ccc(O)cc1)C(N)=O)[C@@H](C)O)[C@@H](C)CC)C(=O)O` [compound 11, [K^22(E-Laur)]hPP2–36] (H-PLEPVYPGDNATPEQMAQYAK([γGlu-Lauroyl])DLRRYINMLTRPRY-NH2), for which the EC50 at hY2R is 49.6 nM; on hY4R, 1.5 nM; on hY5R, 14.9 nM; on hY1R, 204 nM. Further, the maximum response (Emax) stood at 101 ± 7% on hY2R, 86 ± 5% at hY4R, 87 ± 5% on hY5R and 87 ± 5% at hY1R.
In the case of `CCCCCCCCCCCCCCCCCCCC(=O)N[C@@H](CCC(=O)NCCCC[C@H](NC(=O)[C@H](C)NC(=O)[C@H](Cc1ccc(O)cc1)NC(=O)[C@H](CCC(N)=O)NC(=O)[C@H](C)NC(=O)[C@H](CCSC)NC(=O)[C@H](CCC(N)=O)NC(=O)[C@H](CCC(=O)O)NC(=O)[C@@H]1CCCN1C(=O)[C@@H](NC(=O)[C@H](C)NC(=O)[C@H](CC(N)=O)NC(=O)[C@H](CC(=O)O)NC(=O)CNC(=O)[C@@H]1CCCN1C(=O)[C@H](Cc1ccc(O)cc1)NC(=O)[C@@H](NC(=O)[C@@H]1CCCN1C(=O)[C@H](CCC(=O)O)NC(=O)[C@H](CC(C)C)NC(=O)[C@@H]1CCCN1)C(C)C)[C@@H](C)O)C(=O)N[C@@H](CC(=O)O)C(=O)N[C@@H](CC(C)C)C(=O)N[C@@H](CCCNC(=N)N)C(=O)N[C@@H](CCCNC(=N)N)C(=O)N[C@@H](Cc1ccc(O)cc1)C(=O)N[C@H](C(=O)N[C@@H](CC(N)=O)C(=O)N[C@@H](CCSC)C(=O)N[C@@H](CC(C)C)C(=O)N[C@H](C(=O)N[C@@H](CCCNC(=N)N)C(=O)N1CCC[C@H]1C(=O)N[C@@H](CCCNC(=N)N)C(=O)N[C@@H](Cc1ccc(O)cc1)C(N)=O)[C@@H](C)O)[C@@H](C)CC)C(=O)O` [compound 13, [K^22(E-Ara)]hPP2–36] (H-PLEPVYPGDNATPEQMAQYAK([γGlu-Arachidoyl])DLRRYINMLTRPRY-NH2), the concentration for a half-maximal effect (EC50) at hY2R was determined as 0.9 nM; on hY4R, 2.7 nM; at hY5R it was 0.8 nM; on hY1R it was 11.3 nM. Besides, the Emax at hY2R is 90 ± 5%; on hY4R, 93 ± 6%; at hY5R, 75 ± 6%; at hY1R, 101 ± 6%.
`CCCCCCCCCCCC(=O)N[C@@H](CCC(=O)NCCCC[C@H](NC(=O)[C@H](CC(N)=O)NC(=O)[C@@H](NC(=O)[C@H](Cc1ccc(O)cc1)NC(=O)[C@H](CCCNC(=N)N)NC(=O)[C@H](CCCNC(=N)N)NC(=O)[C@H](CC(C)C)NC(=O)[C@H](CC(=O)O)NC(=O)[C@H](C)NC(=O)[C@H](C)NC(=O)[C@H](Cc1ccc(O)cc1)NC(=O)[C@H](CCC(N)=O)NC(=O)[C@H](C)NC(=O)[C@H](CCSC)NC(=O)[C@H](CCC(N)=O)NC(=O)[C@H](CCC(=O)O)NC(=O)[C@@H]1CCCN1C(=O)[C@@H](NC(=O)[C@H](C)NC(=O)[C@H](CC(N)=O)NC(=O)[C@H](CC(=O)O)NC(=O)CNC(=O)[C@@H]1CCCN1C(=O)[C@H](Cc1ccc(O)cc1)NC(=O)[C@@H](NC(=O)[C@@H]1CCCN1C(=O)[C@H](CCC(=O)O)NC(=O)[C@H](CC(C)C)NC(=O)[C@@H]1CCCN1)C(C)C)[C@@H](C)O)[C@@H](C)CC)C(=O)N[C@@H](CC(C)C)C(=O)N[C@H](C(=O)N[C@@H](CCCNC(=N)N)C(=O)N1CCC[C@H]1C(=O)N[C@@H](CCCNC(=N)N)C(=O)N[C@@H](Cc1ccc(O)cc1)C(N)=O)[C@@H](C)O)C(=O)O` [compound 17, [K^30(E-Laur)]hPP2–36] (H-PLEPVYPGDNATPEQMAQYAADLRRYINK([γGlu-Lauroyl])LTRPRY-NH2): the concentration for a half-maximal effect (EC50) on hY2R is 296 nM; at hY4R, 3.6 nM; at hY5R, 38.8 nM; on hY1R, greater than 1000 nM. Further, the Emax worked out at 98 ± 4% at hY2R, 83 ± 5% at hY4R, 81 ± 5% at hY5R and 81 ± 4% at hY1R.
As for `CCCCCCCC(=O)N[C@@H](CCC(=O)NCCCC[C@H](NC(=O)[C@H](C)NC(=O)[C@H](Cc1ccc(O)cc1)NC(=O)[C@H](CCC(N)=O)NC(=O)[C@H](C)NC(=O)[C@H](CCSC)NC(=O)[C@H](CCC(N)=O)NC(=O)[C@H](CCC(=O)O)NC(=O)[C@@H]1CCCN1C(=O)[C@@H](NC(=O)[C@H](C)NC(=O)[C@H](CC(N)=O)NC(=O)[C@H](CC(=O)O)NC(=O)CNC(=O)[C@@H]1CCCN1C(=O)[C@H](Cc1ccc(O)cc1)NC(=O)[C@@H](NC(=O)[C@@H]1CCCN1C(=O)[C@H](CCC(=O)O)NC(=O)[C@H](CC(C)C)NC(=O)[C@@H]1CCCN1)C(C)C)[C@@H](C)O)C(=O)N[C@@H](CC(=O)O)C(=O)N[C@@H](CC(C)C)C(=O)N[C@@H](CCCNC(=N)N)C(=O)N[C@@H](CCCNC(=N)N)C(=O)N[C@@H](Cc1ccc(O)cc1)C(=O)N[C@H](C(=O)N[C@@H](CC(N)=O)C(=O)N[C@@H](CCSC)C(=O)N[C@@H](CC(C)C)C(=O)N[C@H](C(=O)N[C@@H](CCCNC(=N)N)C(=O)N1CCC[C@H]1C(=O)N[C@@H](CCCNC(=N)N)C(=O)N[C@@H](Cc1ccc(O)cc1)C(N)=O)[C@@H](C)O)[C@@H](C)CC)C(=O)O` [compound 10, [K^22(E-Capr)]hPP2–36] (H-PLEPVYPGDNATPEQMAQYAK([γGlu-Octanoyl])DLRRYINMLTRPRY-NH2), the EC50 is greater than 1000 nM on hY2R, 3.1 nM on hY4R, 26 nM on hY5R and greater than 1000 nM on hY1R. For the same compound, the Emax at hY2R was 88 ± 7%; at hY4R it was 91 ± 4%; on hY5R it was 84 ± 4%; on hY1R it was 84 ± 4%.
Regarding `CCCCCCCCCCCCCCCCCCCC(=O)N[C@@H](CCC(=O)NCCCC[C@H](NC(=O)[C@H](CC(N)=O)NC(=O)[C@@H](NC(=O)[C@H](Cc1ccc(O)cc1)NC(=O)[C@H](CCCNC(=N)N)NC(=O)[C@H](CCCNC(=N)N)NC(=O)[C@H](CC(C)C)NC(=O)[C@H](CC(=O)O)NC(=O)[C@H](C)NC(=O)[C@H](C)NC(=O)[C@H](Cc1ccc(O)cc1)NC(=O)[C@H](CCC(N)=O)NC(=O)[C@H](C)NC(=O)[C@H](CCSC)NC(=O)[C@H](CCC(N)=O)NC(=O)[C@H](CCC(=O)O)NC(=O)[C@@H]1CCCN1C(=O)[C@@H](NC(=O)[C@H](C)NC(=O)[C@H](CC(N)=O)NC(=O)[C@H](CC(=O)O)NC(=O)CNC(=O)[C@@H]1CCCN1C(=O)[C@H](Cc1ccc(O)cc1)NC(=O)[C@@H](NC(=O)[C@@H]1CCCN1C(=O)[C@H](CCC(=O)O)NC(=O)[C@H](CC(C)C)NC(=O)[C@@H]1CCCN1)C(C)C)[C@@H](C)O)[C@@H](C)CC)C(=O)N[C@@H](CC(C)C)C(=O)N[C@H](C(=O)N[C@@H](CCCNC(=N)N)C(=O)N1CCC[C@H]1C(=O)N[C@@H](CCCNC(=N)N)C(=O)N[C@@H](Cc1ccc(O)cc1)C(N)=O)[C@@H](C)O)C(=O)O` [compound 19, [K^30(E-Ara)]hPP2–36] (H-PLEPVYPGDNATPEQMAQYAADLRRYINK([γGlu-Arachidoyl])LTRPRY-NH2), the EC50 on hY2R came to 4.9 nM; at hY4R it was 2.5 nM; on hY5R it was 0.6 nM; on hY1R it was 25.1 nM. For the same compound, the Emax at hY2R stood at 88 ± 5%; at hY4R, 84 ± 7%; at hY5R, 69 ± 10%; at hY1R, 98 ± 4%.
